The values that follow come from patent US9371281B2, “Indole derivatives as inhibitors of histone deacetylase” (Pharmacyclics LLC, priority 2006, dated 2016).

Assay [1] concerns P116. In words: Growth inhibition in T-cell lines (Table 6). The format is cell-based. As to conditions: 72 h, P116 (ZAP-70 deficient), 3 Day dose.
The subject of assay [2] is J.γ1. In words: Apoptosis in T-cell lines, Annexin-V positive cells by flow cytometry. The format is cell-based. As to conditions: 3 Day dose. In general terms: In flow cytometry, cells or beads pass a laser one at a time.
Assay [3] deals with P116. The description is as above. The format is cell-based. The note with it: 3 Day dose.
The subject of assay [4] is HDAC8 protein expression. As to the kind of experiment: Western blot of HDAC8 after 24 hr treatment in Jurkat cells. (Immunoblotting shows a protein as a band on a membrane.)
Excerpt: (§1) Western blot of HDAC8 & HDAC1 after 24 hr treatment in Jurkat cells were obtained.
For assay [5], the system named is J.γ1. As to the kind of experiment: Growth inhibition in T-cell lines (Table 6). The format is cell-based. As to conditions: 72 h, J.γ1 (Phospholipase C-γ1 deficient), 3 Day dose.
The test system of assay [6] is Jurkat. In words: Apoptosis in T-cell lines, Annexin-V positive cells by flow cytometry. As to conditions: 3 Day dose. Format: cell-based.
Assay [7] relates to J.RT3-T.5. The description is as above. Format: cell-based. The note with it: 3 Day dose.
The test system of assay [8] is J.RT3-T.5. As to the kind of experiment: Growth inhibition in T-cell lines (Table 6). Format: cell-based. As to conditions: 72 h, J.RT3-T.5 (TCR-β chain deficient), 3 Day dose.
Assay [9] deals with Jurkat. In words: Growth inhibition in T-cell lines (Table 6). The format is cell-based. The note with it: Homo sapiens, 72 h, 3 Day dose.
The test system of assay [10] is HDAC1 levels. As to conditions: Jurkat cells, 24 hr treatment, Western blot.
Excerpt: as §1
In assay [11] the test system is Jurkat cells. As to the kind of experiment: Compound 23 induced apoptosis with Ca2+ effectors. The format is cell-based. From the text: […]. […] […].
Assay [12] concerns IL-1b secretion in THP-1 monocyte cell line. The note with it: LPS, FIG. 12.
For assay [13], the system named is RKO (colon). In words: Apoptosis in solid tumor cells, Annexin V assay. Format: cell-based.
Assay [14] relates to U87 (glioma). As to the kind of experiment: Apoptosis in solid tumor cells, Annexin V assay. Format: cell-based.
Assay [15] relates to HCT116 (colon). As to the kind of experiment: Apoptosis in solid tumor cells, Annexin V assay. The format is cell-based, human.
Assay [16] relates to MCF-7 (breast). As to the kind of experiment: Apoptosis in solid tumor cells, Annexin V assay. The format is cell-based.
The test system of assay [17] is Ovcar-3 (ovarian). In words: Apoptosis in solid tumor cells, Annexin V assay. The format is cell-based.
Assay [18] has as its system Cytochrome C translocation in Jurkat cells. In words: Cytochrome C translocation, Western blotting of mitochondrial and cytosolic fractions. The format is cell-based. As to conditions: 12 or 24 hours.
For assay [19], the system named is A549 (lung). As to the kind of experiment: Apoptosis in solid tumor cells, Annexin V assay. The format is cell-based.
Assay [20] deals with IL-1b secretion in human PBMCs. As to the kind of experiment: Inhibition of IL-1b secretion in human PBMCs. Format: cell-based. The note with it: FIG. 11. The procedure:
Lipopolysaccharide (LPS, 25 ng/ml) is then added to stimulate the cells for another 16 hour incubation period in 5% CO2. IL-1b cytokine levels in the conditioned medium are then quantitated using a sandwich ELISA kit. Compounds are screened at 10, 1, 0.1, 0.01 and 0.001 μM. These same concentrations are concurrently applied to a separate group of treated cells and evaluated for possible compound-induced cytotoxicity.

The subject of assay [21] is normal human peripheral blood mononuclear cells. In words: Cell proliferation, Alamar Blue assay (FIG. 9B). As to conditions: PBMCs, 24 hours. Format: cell-based. On the technique in general: Resazurin is reduced to fluorescent resorufin, in cell work by metabolically active cells.
For assay [22], the system named is PC3 (prostate). In words: Apoptosis in solid tumor cells, Annexin V assay. Format: cell-based.

Entries after “also recorded” stand apart in the source; their conditions may differ.

As to `CN(C)Cc1c(C(=O)NCCOc2ccc(C(=O)NO)cc2)oc2ccccc12` [PCI-24781, reference compound], the GI50 in assay [1] amounted to 190 nM; in assay [5], 140 nM; in assay [8] it was 140 nM; in assay [9], 130 nM. Moreover, the “Apoptosis at 0.125 μM (%)” value in assay [2] (J.γ1, 0.125 μM) is listed as 18%; in assay [3] (P116, 0.125 μM) it was 76%; in assay [6] (0.125 μM), 48%; in assay [7] (J.RT3-T.5, 0.125 μM) it was 32%. For the same compound, the HDAC8 protein levels entry in assay [4] was “affected”. For the same compound, the HDAC1 levels result in [10] was “decreased”.

Take `COc1ccc(Cn2ccc3ccc(C(=O)NO)cc32)cc1` [Compound 23, 1-(4-methoxy-phenylmethyl)-1H-indole-6-carboxylic acid hydroxyamide]: the “compound 23 induced apoptosis with Ca2+ effector thapsigargin” value in assay [11] (compound 23=5 μM, thapsigargin=0.2 μM) is recorded as “enhanced”. In assay [11] (compound 23=10 μM, BAPTA 0.5 μM), the “compound 23 induced apoptosis with Ca2+ chelator BAPTA-AM” value is reported as “inhibited”. Moreover, the results for the IL-1b secretion result in assay [12] and in assay [20] were “reduction of IL-1b secretion” and “inhibition of IL-1b secretion”, respectively. The “% apoptosis at 20 μM (Annexin V assay)” value came to 0% in assay [13]; 0% in [14]; 3% in [15]; 0% in assay [16]; 15% in assay [17]; 0% in [19]. Moreover, the “% apoptosis at 20 μM (Annexin V assay)” value in [22] is listed as 0%. The “Apoptosis at 5 μM (%)” value in [2] (J.γ1, 5 μM) was determined as 12%; in assay [3] (P116, 5 μM), 82%; in assay [6] (5 μM), 43%; in assay [7] (J.RT3-T.5, 5 μM) it was 67%. Further, the HDAC8 protein levels entry in assay [4] is given as “affected”. For the same compound, the “Cytochrome C translocation from mitochondria to cytosol” value in assay [18] is “Cytochrome C translocation from mitochondria to cytosol”. In addition, the effect on growth entry in assay [21] is “failed to inhibit the growth; also recorded: does not inhibit growth”.

For orientation: GI50 means the concentration at which growth is held to half of that of the control.
